{"source": "the NIST ThermoML archive (doi:10.1016/j.jct.2015.08.006)", "settings": "298.44 K, Pendant drop shape", "note": "Numbers after ± are expanded uncertainties."}
{"compound": "O", "note": "[water]", "values": [{"measurement": "surface tension liquid-gas", "value": "71.9 ± 0.6", "unit": "mN/m"}]}
